Assay results taken from ChEMBL document CHEMBL4311999, “3-Hydrazinoisatin-based benzenesulfonamides as novel carbonic anhydrase inhibitors endowed with anticancer activity: Synthesis, in vitro biological evaluation and in silico insights” (Eur J Med Chem, 2019).
Blank lines part the entries; values can stand above or below the compound they belong to.

Columns and labels:
UACC-62 = assay: Growth inhibition of human UACC62 cells at 10 uM incubated for 48 hrs by sulforhodamine B assay relative to control; format: functional; conditions: UACC-62, 48 h, read-out: GI
SF-268 = assay: Growth inhibition of human SF268 cells at 10 uM incubated for 48 hrs by sulforhodamine B assay relative to control; format: functional; conditions: SF-268, 48 h, read-out: GI
786-0 = assay: Growth inhibition of human 786-0 cells at 10 uM incubated for 48 hrs by sulforhodamine B assay relative to control; format: functional; conditions: 786-0, 48 h, read-out: GI
BT-549 = assay: Growth inhibition of human BT549 cells at 10 uM incubated for 48 hrs by sulforhodamine B assay relative to control; format: functional; conditions: BT-549, 48 h, read-out: GI
RXF 393 = assay: Growth inhibition of human RXF393 cells at 10 uM incubated for 48 hrs by sulforhodamine B assay relative to control; format: functional; conditions: RXF 393, 48 h, read-out: GI
SK-MEL-5 = assay: Growth inhibition of human SK-MEL-5 cells at 10 uM incubated for 48 hrs by sulforhodamine B assay relative to control; format: functional; conditions: SK-MEL-5, 48 h, read-out: GI
A498 = assay: Growth inhibition of human A498 cells at 10 uM incubated for 48 hrs by sulforhodamine B assay relative to control; format: functional; conditions: A498, 48 h, read-out: GI
NCI-H522 = assay: Growth inhibition of human NCI-H522 cells at 10 uM incubated for 48 hrs by sulforhodamine B assay relative to control; format: functional; conditions: NCI-H522, 48 h, read-out: GI
MDA-MB-468 = assay: Growth inhibition of human MDA-MB-468 cells at 10 uM incubated for 48 hrs by sulforhodamine B assay relative to control; format: functional; conditions: MDA-MB-468, 48 h, read-out: GI
Carbonic anhydrase 12 = Carbonic anhydrase 12 (Homo sapiens, UniProt O43570); assay: Inhibition of recombinant human carbonic anhydrase 12 preincubated for 15 mins by phenol red dye based stopped flow CO2 hydration assay
MDA-MB-435 = assay: Growth inhibition of human MDA-MB-435 cells at 10 uM incubated for 48 hrs by sulforhodamine B assay relative to control; format: functional; conditions: MDA-MB-435, 48 h, read-out: GI
NCI-H460 = assay: Growth inhibition of human NCI-H460 cells at 10 uM incubated for 48 hrs by sulforhodamine B assay relative to control; format: functional; conditions: NCI-H460, 48 h, read-out: GI
Malme-3M = assay: Growth inhibition of human MALME-3M cells at 10 uM incubated for 48 hrs by sulforhodamine B assay relative to control; format: functional; conditions: read-out: GI
SNB-19 = assay: Growth inhibition of human SNB19 cells at 10 uM incubated for 48 hrs by sulforhodamine B assay relative to control; format: functional; conditions: SNB-19, 48 h, read-out: GI
RPMI-8226 = assay: Growth inhibition of human RPMI8226 cells at 10 uM incubated for 48 hrs by sulforhodamine B assay relative to control; format: functional; conditions: RPMI-8226, 48 h, read-out: GI
LOX IMVI = assay: Growth inhibition of human LOXIMVI cells at 10 uM incubated for 48 hrs by sulforhodamine B assay relative to control; format: functional; conditions: read-out: GI
COLO 205 = assay: Growth inhibition of human COLO205 cells at 10 uM incubated for 48 hrs by sulforhodamine B assay relative to control; format: functional; conditions: COLO 205, 48 h, read-out: GI
NCI-H23 = assay: Growth inhibition of human NCI-H23 cells at 10 uM incubated for 48 hrs by sulforhodamine B assay relative to control; format: functional; conditions: NCI-H23, 48 h, read-out: GI
SK-MEL-28 = assay: Growth inhibition of human SK-MEL-28 cells at 10 uM incubated for 48 hrs by sulforhodamine B assay relative to control; format: functional; conditions: SK-MEL-28, 48 h, read-out: GI
HT-29 = assay: Growth inhibition of human HT-29 cells at 10 uM incubated for 48 hrs by sulforhodamine B assay relative to control; format: functional; conditions: HT-29, 48 h, read-out: GI
EKVX = assay: Growth inhibition of human EKVX cells at 10 uM incubated for 48 hrs by sulforhodamine B assay relative to control; format: functional; conditions: read-out: GI
SK-MEL-2 = assay: Growth inhibition of human SK-MEL-2 cells at 10 uM incubated for 48 hrs by sulforhodamine B assay relative to control; format: functional; conditions: SK-MEL-2, 48 h, read-out: GI
HCT-116 = assay: Inhibition of clonogenicity in human HCT116 cells assessed as reduction in colony formation treated for 10 days by crystal violet staining; format: functional, cell-based
TK-10 = assay: Growth inhibition of human TK10 cells at 10 uM incubated for 48 hrs by sulforhodamine B assay relative to control; format: functional; conditions: TK-10, 48 h, read-out: GI
KM12 = assay: Growth inhibition of human KM12 cells at 10 uM incubated for 48 hrs by sulforhodamine B assay relative to control; format: functional; conditions: KM12, 48 h, read-out: GI
CCRF-CEM = assay: Growth inhibition of human CCRF-CEM cells at 10 uM incubated for 48 hrs by sulforhodamine B assay relative to control; format: functional; conditions: read-out: GI

Carbonic anhydrase 12, sequence (O43570 whole entry): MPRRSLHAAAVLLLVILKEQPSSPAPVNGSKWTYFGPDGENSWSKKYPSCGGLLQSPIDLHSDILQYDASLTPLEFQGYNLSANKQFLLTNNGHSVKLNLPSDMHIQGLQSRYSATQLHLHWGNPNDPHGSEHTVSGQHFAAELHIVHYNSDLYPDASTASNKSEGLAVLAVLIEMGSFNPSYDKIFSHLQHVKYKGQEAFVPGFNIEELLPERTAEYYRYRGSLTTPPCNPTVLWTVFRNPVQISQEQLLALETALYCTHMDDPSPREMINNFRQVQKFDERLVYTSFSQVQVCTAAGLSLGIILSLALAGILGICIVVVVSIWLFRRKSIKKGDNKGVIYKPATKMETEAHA

Ki (Carbonic anhydrase 12): 0.0337 µM
SMILES: NS(=O)(=O)c1ccc(N/N=C2\C(=O)N(Cc3ccccc3)c3ccc(Cl)cc32)cc1
inhibition of growth at 10 µM (UACC-62): 34% | inhibition of growth at 10 µM (SF-268): 35% | inhibition of growth at 10 µM (786-0): 52% | inhibition of growth at 10 µM (BT-549): 19% | inhibition of growth at 10 µM (RXF 393): 55% | inhibition of growth at 10 µM (SK-MEL-5): 20% | inhibition of growth at 10 µM (A498): 22% | inhibition of growth at 10 µM (NCI-H522): 31% | inhibition of growth at 10 µM (MDA-MB-468): 17% | inhibition of growth at 10 µM (MDA-MB-435): 21% | inhibition of growth at 10 µM (NCI-H460): 35% | inhibition of growth at 10 µM (Malme-3M): 30% | inhibition of growth at 10 µM (SNB-19): 59% | inhibition of growth at 10 µM (RPMI-8226): 10%

Ki (Carbonic anhydrase 12): 0.0495 µM
SMILES: CCOC(=O)CN1C(=O)/C(=N\Nc2ccc(S(N)(=O)=O)cc2)c2cc(Br)ccc21
inhibition of growth at 10 µM (LOX IMVI): 14% | inhibition of growth at 10 µM (COLO 205): 42% | inhibition of growth at 10 µM (NCI-H23): 23% | inhibition of growth at 10 µM (SK-MEL-28): 15% | inhibition of growth at 10 µM (RXF 393): 57% | inhibition of growth at 10 µM (SK-MEL-5): 12% | inhibition of growth at 10 µM (HT-29): 36% | inhibition of growth at 10 µM (EKVX): 17% | inhibition of growth at 10 µM (NCI-H522): 29% | inhibition of growth at 10 µM (SK-MEL-2): 11% | inhibition of growth at 10 µM (NCI-H460): 56% | inhibition (HCT-116): Dose-dependent effect | inhibition of growth at 10 µM (TK-10): 14% | inhibition of growth at 10 µM (Malme-3M): 21% | inhibition of growth at 10 µM (KM12): 30% | inhibition of growth at 10 µM (RPMI-8226): 21% | inhibition of growth at 10 µM (CCRF-CEM): 47%
